Reference: PubChem BioAssay (NCI)
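Values below derive from 48-hour exposures of cells grown in 96-well plates, with endpoints linearly interpolated between the two concentrations bracketing the appropriate inhibition level. TGI denotes the concentration required for complete inhibition of growth.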

Key:
Test in all cases: NCI anticancer screen, dose series, 48 h
MDA-N = tested on: MDA-N
ACHN renal = tested on: ACHN renal
MOLT-4 leukemia = tested on: MOLT-4 leukemia
SR leukemia = tested on: SR leukemia
SK-MEL-2 melanoma = tested on: SK-MEL-2 melanoma
CAKI-1 renal = tested on: CAKI-1 renal
A549 NSCLC = tested on: A549 NSCLC
K-562 leukemia = tested on: K-562 leukemia
MALME-3M melanoma = tested on: MALME-3M melanoma
UACC-257 melanoma = tested on: UACC-257 melanoma
KM12 colon = tested on: KM12 colon
HOP-62 NSCLC = tested on: HOP-62 NSCLC
SW-620 colon = tested on: SW-620 colon
HCT-15 colon = tested on: HCT-15 colon
NCI-H522 lung = tested on: NCI-H522 lung
M14 melanoma = tested on: M14 melanoma
SK-OV-3 ovarian = tested on: SK-OV-3 ovarian
RXF 393 renal = tested on: RXF 393 renal
COLO 205 colon = tested on: COLO 205 colon
HCC-2998 colon = tested on: HCC-2998 colon

SMILES: CC(=O)Oc1ccn2nc(C)c(Cc3c(C)nn4ccc(OC(C)=O)cc34)c2c1
- TGI (MDA-N): > 10 µM
- TGI (ACHN renal): > 100 µM
- TGI (MOLT-4 leukemia): > 100 µM
- TGI (SR leukemia): > 100 µM
- TGI (SK-MEL-2 melanoma): > 100 µM
- TGI (CAKI-1 renal): > 100 µM
- TGI (A549 NSCLC): > 100 µM
- TGI (K-562 leukemia): > 100 µM
- TGI (MALME-3M melanoma): > 100 µM
- TGI (UACC-257 melanoma): > 100 µM
- TGI (KM12 colon): > 100 µM
- TGI (HOP-62 NSCLC): > 100 µM
- TGI (SW-620 colon): > 100 µM
- TGI (HCT-15 colon): > 100 µM
- TGI (NCI-H522 lung): > 100 µM
- TGI (M14 melanoma): > 100 µM

SMILES: COc1cc(/C=C2/C[C@H]3[C@@H]4CCC5=CC(=O)CC[C@]5(C)[C@H]4CC[C@]3(C)NC2=O)cc(OC)c1OC
- TGI (SK-OV-3 ovarian): > 100 µM
- TGI (MDA-N): > 100 µM
- TGI (ACHN renal): > 100 µM
- TGI (MOLT-4 leukemia): > 100 µM
- TGI (SK-MEL-2 melanoma): > 100 µM
- TGI (CAKI-1 renal): > 100 µM
- TGI (A549 NSCLC): > 100 µM
- TGI (MALME-3M melanoma): 72.2 µM
- TGI (RXF 393 renal): 46.7 µM
- TGI (UACC-257 melanoma): > 100 µM
- TGI (KM12 colon): > 100 µM
- TGI (HOP-62 NSCLC): > 100 µM
- TGI (SW-620 colon): > 100 µM
- TGI (COLO 205 colon): 44.4 µM
- TGI (HCT-15 colon): > 100 µM
- TGI (HCC-2998 colon): > 100 µM
- TGI (NCI-H522 lung): 34 µM
- TGI (M14 melanoma): > 100 µM

SMILES: CN(C)S(=O)(=O)n1ccnc1
- TGI (SK-OV-3 ovarian): > 100 µM
- TGI (MDA-N): > 100 µM
- TGI (ACHN renal): > 100 µM
- TGI (MOLT-4 leukemia): > 100 µM
- TGI (SK-MEL-2 melanoma): > 100 µM
- TGI (CAKI-1 renal): > 100 µM
- TGI (A549 NSCLC): > 100 µM
- TGI (K-562 leukemia): > 100 µM
- TGI (MALME-3M melanoma): > 100 µM
- TGI (RXF 393 renal): > 100 µM
- TGI (UACC-257 melanoma): > 100 µM
- TGI (KM12 colon): > 100 µM
- TGI (HOP-62 NSCLC): > 100 µM
- TGI (SW-620 colon): > 100 µM
- TGI (COLO 205 colon): > 100 µM
- TGI (HCT-15 colon): > 100 µM
- TGI (HCC-2998 colon): > 100 µM
- TGI (NCI-H522 lung): > 100 µM
- TGI (M14 melanoma): > 100 µM

SMILES: CN(C)c1ccc(/C=C2\C[C@H]3[C@@H]4CCC5=CC(=O)CC[C@]5(C)[C@H]4CC[C@]3(C)C2=O)cc1
- TGI (SK-OV-3 ovarian): > 100 µM
- TGI (MDA-N): > 100 µM
- TGI (ACHN renal): > 100 µM
- TGI (MOLT-4 leukemia): > 100 µM
- TGI (SR leukemia): > 100 µM
- TGI (SK-MEL-2 melanoma): > 100 µM
- TGI (CAKI-1 renal): > 100 µM
- TGI (A549 NSCLC): > 100 µM
- TGI (K-562 leukemia): > 100 µM
- TGI (MALME-3M melanoma): 72.9 µM
- TGI (RXF 393 renal): > 100 µM
- TGI (UACC-257 melanoma): 67.3 µM
- TGI (KM12 colon): > 100 µM
- TGI (HOP-62 NSCLC): > 100 µM
- TGI (SW-620 colon): > 100 µM
- TGI (COLO 205 colon): 64.8 µM
- TGI (HCT-15 colon): > 100 µM
- TGI (M14 melanoma): > 100 µM

SMILES: Brc1ccc(-c2ccc(-c3ccc(-c4ccc(Br)s4)s3)s2)s1
- TGI (SK-OV-3 ovarian): > 100 µM
- TGI (MDA-N): > 100 µM
- TGI (ACHN renal): > 100 µM
- TGI (MOLT-4 leukemia): > 100 µM
- TGI (SR leukemia): > 100 µM
- TGI (CAKI-1 renal): > 100 µM
- TGI (A549 NSCLC): > 100 µM
- TGI (K-562 leukemia): > 100 µM
- TGI (RXF 393 renal): > 100 µM
- TGI (UACC-257 melanoma): > 100 µM
- TGI (KM12 colon): > 100 µM
- TGI (HOP-62 NSCLC): > 100 µM
- TGI (SW-620 colon): > 100 µM
- TGI (COLO 205 colon): > 100 µM
- TGI (HCT-15 colon): > 100 µM
- TGI (HCC-2998 colon): > 100 µM
- TGI (M14 melanoma): > 100 µM

SMILES: CSc1sc(C)cc1-c1nsc(=O)o1
- TGI (MDA-N): > 100 µM
- TGI (ACHN renal): > 100 µM
- TGI (MOLT-4 leukemia): > 100 µM
- TGI (SR leukemia): > 100 µM
- TGI (CAKI-1 renal): > 100 µM
- TGI (A549 NSCLC): > 100 µM
- TGI (K-562 leukemia): > 100 µM
- TGI (MALME-3M melanoma): > 100 µM
- TGI (RXF 393 renal): > 100 µM
- TGI (UACC-257 melanoma): > 100 µM
- TGI (KM12 colon): > 100 µM
- TGI (SW-620 colon): > 100 µM
- TGI (COLO 205 colon): > 100 µM
- TGI (HCT-15 colon): > 100 µM
- TGI (HCC-2998 colon): > 100 µM
- TGI (NCI-H522 lung): > 100 µM
- TGI (M14 melanoma): > 100 µM

SMILES: CCOC(=O)CSc1[nH]c2nc(C)nc(Cl)c2c1C#N
- TGI (SK-OV-3 ovarian): > 10 µM
- TGI (MDA-N): > 10 µM
- TGI (MOLT-4 leukemia): > 10 µM
- TGI (SR leukemia): > 10 µM
- TGI (CAKI-1 renal): > 10 µM
- TGI (A549 NSCLC): > 10 µM
- TGI (K-562 leukemia): > 10 µM
- TGI (MALME-3M melanoma): > 10 µM
- TGI (RXF 393 renal): > 10 µM
- TGI (UACC-257 melanoma): > 10 µM
- TGI (KM12 colon): > 10 µM
- TGI (HOP-62 NSCLC): > 10 µM
- TGI (SW-620 colon): > 10 µM
- TGI (COLO 205 colon): > 10 µM
- TGI (HCT-15 colon): > 10 µM
- TGI (HCC-2998 colon): > 10 µM
- TGI (M14 melanoma): > 10 µM
